Results published in the OPERA property sets (Mansouri et al. 2018).
Where a SMILES comes first, the peptide text is derived from it.

Compound: CN(C)CCOc1cccc(Cl)c1
- logP: 2.82

Compound: Cc1cc2ccc3occ(C)c3c2oc1=O
- logP: 2.97

Compound: CCC(C)C(N)C(=O)NC(C(=O)NC(C(=O)NC(C(=O)NC(C(=O)O)C(C)CC)C(C)C)C(C)C)C(C)C (centres undefined) (H-IVVVI-OH; configuration not given here)
- logP: -0.89

Compound: O=S(=O)(NC(=S)NC1CCCCC1)c1cnccc1NC1CCCCCC1
- logP: 4.71

Compound: CCCNc1ncnc2c1ncn2C1OC(CO)C(O)C1O (centres undefined)
- logP: 0.54

Compound: CC(C)C(NC(=O)C(N)Cc1ccc(O)cc1)C(=O)NC(Cc1ccccc1)C(=O)O (centres undefined)
- logP: -1.37

Compound: O=C(NC(Cc1c[nH]c2ccccc12)C(=O)O)OCc1ccccc1 (centres undefined)
- logP: 3.2

Compound: COC(=O)c1[nH]cc(-c2ccccc2C)c1N1CCOCC1
- logP: 2.8

Compound: CN1CC(O)N(C(=O)NC2CCCC2)C1=O (centres undefined)
- logP: 1.47

Compound: CC(C)(C)[N+]([O-])=Cc1ccccc1[N+](=O)[O-]
- logP: 0.8

Compound: CC1CN(CC2CN=C(N)O2)CC(C)O1 (centres undefined)
- logP: 0.16

Compound: CCNc1nc(O)nc(NCC)n1
- logP: 2.29

Compound: COc1cc2c(Nc3cc(CC(=O)Nc4cccc(F)c4F)[nH]n3)ncnc2cc1OCCCN1CCCC1CO (centres undefined)
- logP: 3.6

Compound: O=C(O)CCCCON=C(c1ccnnc1)c1cccc(C(F)(F)F)c1
- logP: 2.99

Compound: CC(C)(C)NC(=O)[C@@H]1CN(Cc2cccnc2)CCN1C[C@@H](O)C[C@@H](Cc1ccccc1)C(=O)N[C@H]1c2ccccc2C[C@H]1O
- logP: 3.49

Compound: CCCC(=NOCC)C1=C(O)CC2(CCC(CC(C)(C)C)CC2)OC1=O (centres undefined)
- logP: 5.3

Compound: CCCCOc1ccccc1NC(=O)OCCN1CCCCC1
- logP: 4.79

Compound: CC(C)(O)C1CCC2(C)CCCC(O)C2C1 (centres undefined)
- logP: 2.68

Compound: CC(C)COC(=O)n1cc(F)c(=O)[nH]c1=O
- logP: 0.87

Compound: Clc1ccc(C=NOCCc2nnc(-c3ccccc3)o2)cc1
- logP: 3.01

Compound: CCCCC(=O)C(CCCCOc1cccc(F)c1)n1cncn1 (centres undefined)
- logP: 3.42

Compound: Cc1ccc(OCC(O)C(C)NC(C)C)c2c1CCC2 (centres undefined)
- logP: 3.19

Compound: COCCOC(=O)C1=C(C)NC(C)=C(C(=O)OC(C)C)C1c1cccc2c1OCO2 (centres undefined)
- logP: 3.94

Compound: CCC(C)C(N)C(=O)NC(CO)C(=O)NC(CC(C)C)C(=O)O (stereo not drawn) (H-Ile-Ser-Leu-OH; configuration not given here)
- logP: -2.28

Compound: O=C(O)CCCCCON=C(c1cccc(C(F)(F)F)c1)c1cccnn1
- logP: 3.22

Compound: CCNC(=S)NS(=O)(=O)c1cnccc1NC1CCCCCCC1
- logP: 3.86

Compound: O=C1NC(=O)C(c2ccccc2)(c2ccccc2)N1S(=O)(=O)c1ccc(O)cc1
- logP: 3.58

Compound: COC1(OC)C(N2CCOCC2)=NC(=O)N1c1ccc(Cl)cc1
- logP: 1.7

Compound: O=C(O)C1CSC(c2ccc(O)cc2O)=N1 (centres undefined)
- logP: 1.1

Compound: O=C(CC1CCc2cc(Br)cc3[nH]c(=O)c(=O)n1c23)Nc1ccccc1 (centres undefined)
- logP: 2.78

Compound: CCc1cccc(CNc2[nH]cnc3ncnc2-3)c1
- logP: 2.98

Compound: Cc1cc(=O)oc2c(C)c3occc3cc12
- logP: 2.82

Compound: CC(=O)N(O)CCCCCNC(=O)CCC(=O)N(O)CCCCCNC(=O)CCC(=O)N(O)CCCCCNC=O
- logP: -0.33

Compound: COc1cccc2nc(N)nc(N)c12
- logP: 1.18

Compound: CC(NC(=O)C(N)Cc1c[nH]c2ccccc12)C(=O)NC(C(N)=O)C(C)C (stereo not drawn) (H-Trp-Ala-Val-NH2; configuration not given here)
- logP: 0.4

Compound: CC(C)CCNc1ncnc2c1ncn2C1OC(CO)C(O)C1O (centres undefined)
- logP: 1.6

Compound: Clc1ccc2c(oc3c(Cl)cc(Cl)c(Cl)c32)c1Cl
- logP: 6.27

Compound: COC(=O)N1CCN(C(=O)Cc2ccc(Cl)c(Cl)c2)C(CN2CCCC2)C1 (centres undefined)
- logP: 4.1

Compound: O=C(NC1CCCCC1)NS(=O)(=O)c1cnccc1NC1CCCCC1
- logP: 4.23

Compound: Oc1cccc(CNc2ncnc3nc[nH]c23)c1
- logP: 1.56

Compound: CCOC(=O)C1=C(C)NC(C)=C(C(=O)OC(C)C)C1c1cccc2c1OCO2 (centres undefined)
- logP: 4.71

Compound: N#CNc1ccccc1
- logP: 1.87

Compound: CCCCCCCCNC1=NS(=O)N=C1NCCSCc1ccc(CN(C)C)o1 (centres undefined)
- logP: 4.47

Compound: Cn1cnc([N+](=O)[O-])c1S(N)(=O)=O
- logP: -0.74

Compound: Cc1nc2ccccc2c(=O)n1CC(=O)N1CCOCC1
- logP: 0.36

Compound: c1ccc(CCCc2ccccc2)cc1
- logP: 3.43

Compound: O=C(NS(=O)(=O)c1cnccc1NC1CCCCCC1)N1CCCCCC1
- logP: 4.43

Compound: CCOc1ccc(C(=O)OCCCn2ccc(=O)c(O)c2C)cc1
- logP: 1.79

Compound: O=CC(=C(Cl)C(=O)O)C(Cl)Cl
- logP: 1.13

Compound: O=c1ccc2cc3ccsc3cc2s1
- logP: 2.96

Compound: CCC(=O)Nc1ccc(OCC(O)CNC(C)C)cc1 (centres undefined)
- logP: 1.02

Compound: C[N+](C)([O-])CCCN1c2ccccc2Sc2ccccc21
- logP: 1.9

Compound: NC1=NCC(CN2CC=CCC2)O1 (centres undefined)
- logP: 0.19

Compound: CC(C)CCC(=O)CC1c2ccccc2C(=O)N1c1ccc2ccc(Cl)nc2n1 (centres undefined)
- logP: 4.8

Compound: O=c1ccc2ccc3occc3c2[nH]1
- logP: 1.82

Compound: COC(=O)NC(=O)Cn1c(C)nc2ccccc2c1=O
- logP: 0.4

Compound: CN1CCc2cccc(Cl)c2CC1
- logP: 2.92

Compound: O=c1cc(-c2ccccc2Cl)oc2ccccc12
- logP: 3.61

Compound: CN1C(C(=O)Nc2ccccn2)=C(O)c2sc(Cl)cc2S1(=O)=O
- logP: 2.62

Compound: CCOP(=O)(OCC)C(C)(C)[N+]([O-])=Cc1ccccn1
- logP: 0.68

Compound: Cc1coc2c1c(C)cc1oc(=O)cc(C)c12
- logP: 3.28

Compound: COC(=O)C(C)=CC1C(C(=O)OCc2ccccc2)C1(C)C (centres undefined)
- logP: 4.4

Compound: CCN(CC)CCC(=O)Nc1c(C)cc(N)cc1C
- logP: 0.93

Compound: S=C=NC(c1ccccc1)c1ccccc1
- logP: 5.09
